Molecules are shown by their SMILES. Entries after “also recorded” stand apart in the source; their conditions may differ.

For series [1], the system named is HEK293 cell line cotransfected with the hTLR7 gene. The series can be described thus: Cytotoxicity, MTS cell proliferation assay. It counts as cell-based, human. As to conditions: 24 h. As for the experimental part: The cytotoxicity of the compounds was determined by the MTS assay at concentrations of 150, 50, and 10 μM on the HEK293 cell line cotransfected with the hTLR7 gene (Figure 3).
The cytotoxicity of the compounds was determined using the MTS cell proliferation assay (CellTiter 96 AQueous One Solution Cell Proliferation Assay, Promega, Wisconsin, USA), according to the manufacturer's protocol on the HEK293 cell line, cotransfected with the hTLR7 gene (InVivoGen). Cells were seeded in 96-well plates (1.5 × 10^4 cells/well). After 24 h incubation at 5% CO2 and 37 °C, the cells were treated either with DMSO (negative control) or with solutions of the tested compounds in DMSO. After 24 h, MTS reagent (CellTiter 96 AQueous One Solution Cell Proliferation Assay, Promega, Wisconsin, USA) was added. Cells were incubated for another 2 h, and then absorbance was measured at 490 nm.
Background: Tetrazolium assays rely on reduction of a dye to a coloured formazan, in cell work by metabolically active cells.

Series [2] relates to human peripheral blood mononuclear cells (PBMCs). Briefly: Cytokine secretion in PBMCs, cytometric bead array. Type of series: cell-based. As to conditions: 24 h; for IL-6 concentration / IL-8 secretion / IL-10 concentration / IL-12p70 secretion / TNF-α secretion / IL-1β secretion: 21a 62.5 and 12.5 μM, 24a 125 and 25 μM. On the procedure:
PBMCs were seeded on a 24-well plate and treated with compounds 21a (62.5 μM (21a (1)) and 12.5 μM (21a (2))) and 24a (125 μM (24a (1)) and 25 μM (24a (2))). For a positive control (PC), imiquimod (1) was used (final concentration is 10 μg/mL) and the negative control were cells treated with DMSO. […] The BD Human Cytometric Bead Array (BD Biosciences, California, USA) was used to assay the protein levels of IL-1β, IL-6, IL-8, IL-10, IL-12p70, and TNF-α in the cell culture supernatant, according to the manufacturer’s protocol (BD Biosciences). PBMCs were isolated from buffy coats obtained at the Blood Transfusion Centre of Slovenia. Cells were seeded into 24-well plates (5 × 10^5 cells/well in […] of RPMI medium, Sigma-Aldrich, St. Louis, Missouri, USA) and treated with the selected TLR7 agonist. For a PC, imiquimod was used (final concentration is 10 μg/mL) and the negative control were cells treated with DMSO. Cells were centrifuged after 24 h incubation at 5% CO2 and 37 °C, and cell culture supernatants were used for further analysis. In an assay tube, […] of the Capture Beads, […] of the Detection Reagent, and […] of sample (fivefold dilution) were mixed and incubated for 3 h at room temperature and protected from light. Samples were then washed with 1 mL of wash buffer and centrifuged at 200g for 5 min. The supernatant was carefully aspirated and discarded from each assay tube. The bead pellet was resuspended by adding […] of wash buffer. Flow cytometry was performed using a FACSCalibur system (Becton Dickinson, Inc., New Jersey, USA). A standard curve was prepared by serial dilutions of standards and used for determination of cytokine concentrations in supernatants.

For the next series, the target named is T1, hTLR7 (Homo sapiens, UniProt Q9NYK1).
T1 construct: host or cells: HEK293
T1 sequence (Q9NYK1 27-1049): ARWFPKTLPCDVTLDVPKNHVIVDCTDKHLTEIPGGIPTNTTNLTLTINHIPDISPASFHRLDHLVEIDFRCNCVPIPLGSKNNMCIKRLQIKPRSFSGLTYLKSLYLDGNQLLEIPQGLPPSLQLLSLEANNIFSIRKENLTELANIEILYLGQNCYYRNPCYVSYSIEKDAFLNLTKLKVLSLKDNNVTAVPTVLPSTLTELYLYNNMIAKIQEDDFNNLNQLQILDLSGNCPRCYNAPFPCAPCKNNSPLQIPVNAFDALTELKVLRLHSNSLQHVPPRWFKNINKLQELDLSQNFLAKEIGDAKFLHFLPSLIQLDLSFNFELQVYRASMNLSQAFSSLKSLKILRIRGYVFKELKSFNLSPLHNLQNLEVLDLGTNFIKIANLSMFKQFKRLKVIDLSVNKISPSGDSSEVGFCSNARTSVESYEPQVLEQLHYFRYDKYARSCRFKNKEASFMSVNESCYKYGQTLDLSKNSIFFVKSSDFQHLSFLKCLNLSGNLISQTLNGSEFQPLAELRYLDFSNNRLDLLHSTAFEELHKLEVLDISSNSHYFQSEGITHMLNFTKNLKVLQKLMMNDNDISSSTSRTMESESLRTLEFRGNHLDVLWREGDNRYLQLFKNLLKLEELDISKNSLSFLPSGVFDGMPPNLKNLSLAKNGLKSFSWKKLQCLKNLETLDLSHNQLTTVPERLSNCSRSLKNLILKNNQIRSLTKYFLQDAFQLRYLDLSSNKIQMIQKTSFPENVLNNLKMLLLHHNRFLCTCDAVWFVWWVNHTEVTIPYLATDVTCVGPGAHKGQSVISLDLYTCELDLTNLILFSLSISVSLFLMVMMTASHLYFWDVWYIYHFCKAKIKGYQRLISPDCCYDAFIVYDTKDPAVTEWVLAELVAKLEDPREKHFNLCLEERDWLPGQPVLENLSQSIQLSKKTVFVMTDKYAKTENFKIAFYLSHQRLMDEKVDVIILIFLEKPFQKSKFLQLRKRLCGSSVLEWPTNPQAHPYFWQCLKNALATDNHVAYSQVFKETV
The series can be described thus: TLR7 agonist activity, HEK293 hTLR7 SEAP reporter assay. It counts as cell-based. As to conditions: HEK293 cotransfected with hTLR7 and inducible SEAP reporter gene, 24 h treatment; average ± SD of three independent replicates; n.a. = not active; read-out: EC50. On the procedure:
TLR7 agonist activities were determined using the HEK293 cell line, which was cotransfected with the hTLR7 gene and an inducible SEAP reporter gene (InvivoGen, San Diego, California, USA) as described previously.[34] Briefly, cells were seeded in 96-well plates (3 × 10^4 cells/well) and incubated at 5% CO2 and 37 °C. After 24 h, the cells were treated with the solutions of the compounds in DMSO. Imiquimod was used as a PC. The cells were incubated again for 24 h under the same conditions. The activity of SEAP in the supernatant of the cells was measured using the QUANTI-Blue reagent (InvivoGen, San Diego, California, USA), according to the manufacturer's protocol. EC50 values were determined using GraphPad Prism 9.2.0. software (San Diego, California, USA) using the nonlinear regression curve fit and four-parameter logistic equation. All experiments were performed in three independent biological replicates. Values are given as averages from the independent measurements with standard deviations calculated.
For orientation: In a reporter assay the amount or activity of a reporter protein is the signal.

For `Cl.Fc1ccc(-c2noc3nc(C(F)(F)F)nc(N4CCNCC4)c23)cc1` [Compound 21i, 4-(3-(4-Fluorophenyl)-6-(trifluoromethyl)isoxazolo[5,4-d]pyrimidin-4-yl)piperazin-1-ium chloride], the “cytotoxicity (cell viability)” value is recorded as “highly cytotoxic” in series [1] (150 μM); “cytotoxic” in series [1] (150, 50 and 10 μM).
Regarding `CC1CCCN(c2nc(C(F)(F)F)nc3onc(C4CCNCC4)c23)C1.Cl` (stereo not drawn) [Compound 25a, 4-(4-(3-Methylpiperidin-1-yl)-6-(trifluoromethyl)isoxazolo[5,4-d]pyrimidin-3-yl)piperidin-1-ium chloride], in series [1] (150 μM), the “cytotoxicity (cell viability)” value is listed as “highly cytotoxic”.
Usually EC50 stands for the concentration that produces a half-maximal response. `CC1CCCN(c2nc(C(F)(F)F)nc3onc(-c4ccc(F)cc4)c23)C1` (stereo not drawn) [Compound 21a, 3-(4-Fluorophenyl)-4-(3-methylpiperidin-1-yl)-6-(trifluoromethyl)isoxazolo[5,4-d]pyrimidine]: in series [2], the IL-6 concentration result is “did not increase significantly”, the IL-8 secretion result is on record as “induced the secretion”, the IL-10 concentration result is given as “did not increase significantly” and the IL-12p70 secretion result is on record as “induced the secretion”. Besides, the TNF-α secretion result in series [2] is on record as “induced the secretion”. Moreover, the IL-1β secretion result in series [2] (imiquimod 10 μg/mL) was “induced the secretion”. In addition, the “induction of TNF-α secretion in comparison to 1 (imiquimod)” value in series [2] (21a at 62.5 μM, imiquimod 10 μg/mL) was “higher induction”. Moreover, the EC50 on hTLR7 came out at 7.8 ± 0.1 µM. Moreover, the “cytotoxicity (cell viability)” value in series [1] (150, 50 and 10 μM) was “noncytotoxic; also recorded: no cytotoxic effects”.
For the compound `CC1CCCN(c2nc(C(F)(F)F)nc3onc(C4CC4)c23)C1` (stereo not drawn) [Compound 24a, 3-Cyclopropyl-4-(3-methylpiperidin-1-yl)-6-(trifluoromethyl)isoxazolo[5,4-d]pyrimidine], in series [2], the IL-6 concentration result is “did not increase significantly”, the IL-8 secretion result was “induced the secretion”, the IL-10 concentration entry is recorded as “did not increase significantly” and the IL-12p70 secretion result is on record as “induced the secretion”. For the same compound, the TNF-α secretion entry in series [2] is “induced the secretion”. Also, the IL-1β secretion entry in series [2] (imiquimod 10 μg/mL) is given as “induced the secretion”. Further, the EC50 at hTLR7 came out at 25.3 ± 3.5 µM.
`CC(C)Cn1cnc2c(N)nc3ccccc3c21` [imiquimod, reference compound]: the IL-1β secretion entry in series [2] (imiquimod 10 μg/mL) is “stimulated the release”.
Regarding `CC(C)CNc1nc(C(F)(F)F)nc2onc(C3CCNCC3)c12.Cl` [Compound 25b, 4-(4-(Isobutylamino)-6-(trifluoromethyl)isoxazolo[5,4-d]pyrimidin-3-yl)piperidin-1-ium chloride], the “cytotoxicity (cell viability)” value in series [1] (150 μM) is listed as “highly cytotoxic”.

(Values after paper PMC10795023, “Structural Optimization and Biological Evaluation of Isoxazolo[5,4-d]pyrimidines as Selective Toll-Like Receptor 7 Agonists” (ACS Omega, 2024).)
